From patent publication US7468359B2, “Compositions comprising oxophosphonate-based metalloproteinase inhibitors” (Yissum Research Develpment Company of the Hebrew University …, priority 1999, dated 2008)
Like-named read-outs stand apart in the source and are kept apart here.

What was measured:
cancer cells = assay: Matrigel chemoinvasion assay in Boyden chambers; format: cell-based; settings: for inhibition at 50 µM: read-out: % Inhibition of Chemoinvasion 50 uM
MMP2 = molecular target: T1, MMP2 (Homo sapiens, UniProt P08253); assay: Activity on pure MMP2 enzyme; format: biochemical
T1 sequence (P08253 110-660): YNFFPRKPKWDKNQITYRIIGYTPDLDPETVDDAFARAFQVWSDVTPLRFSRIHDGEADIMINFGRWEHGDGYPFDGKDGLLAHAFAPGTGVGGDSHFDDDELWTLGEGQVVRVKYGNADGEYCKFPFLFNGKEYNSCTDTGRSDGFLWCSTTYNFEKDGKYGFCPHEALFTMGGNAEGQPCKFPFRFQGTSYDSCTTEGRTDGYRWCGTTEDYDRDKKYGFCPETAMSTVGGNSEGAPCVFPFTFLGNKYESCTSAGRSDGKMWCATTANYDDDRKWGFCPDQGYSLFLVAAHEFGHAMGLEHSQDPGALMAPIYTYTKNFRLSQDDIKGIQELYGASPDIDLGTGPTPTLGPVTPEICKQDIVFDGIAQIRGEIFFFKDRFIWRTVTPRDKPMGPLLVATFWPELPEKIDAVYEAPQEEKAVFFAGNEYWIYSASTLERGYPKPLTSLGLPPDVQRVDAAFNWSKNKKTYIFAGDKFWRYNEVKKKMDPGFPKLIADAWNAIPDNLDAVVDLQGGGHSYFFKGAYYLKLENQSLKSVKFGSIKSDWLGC

Endothelial cells = assay: Endothelial cell tube formation (capillary formation); format: cell-based
murine melanoma = assay: Metastasis formation in the murine melanoma model; format: in vivo, mice; settings: 50 mg/kg daily injections for 21 d, lung tumors counted, vs untreated animals

Work on `CNC(=O)[C@H](Cc1ccccc1)NC(=O)[C@H](CC(C)C)[C@H](CSc1cccs1)C(=O)NO` [Batimastat, reference compound] yielded an inhibition at 50 µM (cancer cells) of 40%.
With `CCOC([O-])[PH](=O)C(=O)N(C)O.[Na+]` (stereo not shown) [Compound 1] the Activity (cancer cells) was “++ (key: ++++: active at submicromolar concen-tration; +++: active at 1-10 μM; ++: active at 50-100 μM; +: active at 100 μM; −: not active at 100 μM)”.
With `O=C(OCc1ccccc1)P(=O)([O-])O.[Na+]` [Compound 5] the Activity (cancer cells) was “++ (key: ++++: active at submicromolar concen-tration; +++: active at 1-10 μM; ++: active at 50-100 μM; +: active at 100 μM; −: not active at 100 μM)”.
In the case of `O=C(c1ccccc1)P(=O)([O-])O.[Na+]` [Compound 7], the Activity (cancer cells) is reported as “++ (key: ++++: active at submicromolar concen-tration; +++: active at 1-10 μM; ++: active at 50-100 μM; +: active at 100 μM; −: not active at 100 μM)”.
In the case of `O=C(c1ccc(Cl)cc1)P(=O)([O-])[O-].[Na+].[Na+]` [Compound 8, p-chlorobenzoylphosphonic acid sodium salt], the Activity (cancer cells) is reported as “+++ (key: ++++: active at submicromolar concen-tration; +++: active at 1-10 μM; ++: active at 50-100 μM; +: active at 100 μM; −: not active at 100 μM)” and the MMP inhibiting activity (cancer cells) is reported as “considerable MMP inhibiting activity”.
In the case of `CCC(=O)P(=O)([O-])O.[Na+]` [Compound 10], the Activity (cancer cells) is reported as “+ (key: ++++: active at submicromolar concen-tration; +++: active at 1-10 μM; ++: active at 50-100 μM; +: active at 100 μM; −: not active at 100 μM)”.
In the case of `CCC(=O)P(=O)([O-])OC.[Na+]` [Compound 11], the Activity (cancer cells) is reported as “+ (key: ++++: active at submicromolar concen-tration; +++: active at 1-10 μM; ++: active at 50-100 μM; +: active at 100 μM; −: not active at 100 μM)”.
With `O=C(Cc1ccccc1)P(=O)([O-])O.[Na+]` [Compound 12] the Activity (cancer cells) was “+ (key: ++++: active at submicromolar concen-tration; +++: active at 1-10 μM; ++: active at 50-100 μM; +: active at 100 μM; −: not active at 100 μM)”.
With `COP(=O)([O-])C(=O)Cc1ccccc1.[Na+]` [Compound 13] the Activity (cancer cells) was “++ (key: ++++: active at submicromolar concen-tration; +++: active at 1-10 μM; ++: active at 50-100 μM; +: active at 100 μM; −: not active at 100 μM)”.
With `CCC(=NO)P(=O)([O-])OC.[Li+]` [Compound 14] the Activity (cancer cells) was “+ (key: ++++: active at submicromolar concen-tration; +++: active at 1-10 μM; ++: active at 50-100 μM; +: active at 100 μM; −: not active at 100 μM)”.
With `O=C(NCc1ccccc1)P(=O)([O-])O.[Na+]` [Compound 16] the Activity (cancer cells) was “++ (key: ++++: active at submicromolar concen-tration; +++: active at 1-10 μM; ++: active at 50-100 μM; +: active at 100 μM; −: not active at 100 μM)”.
In the case of `O=C(NCCc1ccccc1)P(=O)([O-])O.[Na+]` [Compound 17], the Activity (cancer cells; preliminary screening, invasion/chemotaxis chambers vs untreated preparations) is reported as “+ (active at 100 μM)”.
For `CCCCNC(=O)P(=O)([O-])O.[Na+]` [Compound 23], the Activity (cancer cells) was “+ (key: ++++: active at submicromolar concen-tration; +++: active at 1-10 μM; ++: active at 50-100 μM; +: active at 100 μM; −: not active at 100 μM)”.
With `CN(C)CCNC(=O)P(=O)(O)O` [Compound 26, N-(2-dimethylaminoethyl)phosphonoformamide Betaine] the IC50 (MMP2) was 0.025 µM, the inhibition at 50 µM (Endothelial cells; Endothelial cell, read-out: % Inhibition of Capillary Formation 50 µM) was 75% and the Activity (cancer cells) was “++++ (key: ++++: active at submicromolar concen-tration; +++: active at 1-10 μM; ++: active at 50-100 μM; +: active at 100 μM; −: not active at 100 μM)”. For the same molecule, the inhibition at 50 µM (cancer cells) was 66% and the “% Inhibition of Metastasis Formation 50 mg/kg for 21 d” value (“% Inhibition … for 21 d” for short) (murine melanoma) was 73%.
In the case of `O=C(NC1CCCCC1)P(=O)(O)O` [Compound 33], the Activity (cancer cells) is reported as “++++ (key: ++++: active at submicromolar concen-tration; +++: active at 1-10 μM; ++: active at 50-100 μM; +: active at 100 μM; −: not active at 100 μM)”.
In the case of `O=P([O-])([O-])Cc1ccc(Cl)cc1.[Na+].[Na+]` [Compound 38, p-chlorobenzylphosphonic acid sodium salt, reference compound], the Activity (cancer cells) is reported as “− (key: ++++: active at submicromolar concen-tration; +++: active at 1-10 μM; ++: active at 50-100 μM; +: active at 100 μM; −: not active at 100 μM)” and the MMP inhibiting activity (cancer cells) is reported as “completely devoid of inhibitory activity”.
`O=C(NC1CCCCC1)P(=O)(O)O` [Example 5, Hydrogen Sodium N-cyclohexylcarbamoylphosphonate] was tested, and the IC50 (MMP2) was 0.08 µM and the “concentration at which active in the Boyden chamber chemoinvasion assay” value (from here on “concentration at which active”) (cancer cells) was 1 µM.
`O=C(NCCN1CCOCC1)P(=O)(O)O` [Example 7, N-(2-[4-morpholino]ethyl)phosphonoformamide Betaine] was tested, and the “concentration at which active” value (cancer cells) was 100 µM.
In the case of `O=C(NCCN1CCCCC1)P(=O)(O)O` [Example 8, N-(2-[1-piperidino]ethyl)phosphonoformamide Betaine], the “concentration at which active” value (cancer cells) is reported as 100 µM.
In the case of `O=C(NCCN1CCCC1)P(=O)(O)O` [Example 9, N-(2-[1-pyrrolidino]ethyl)phosphonoformamide Betaine], the “concentration at which active” value (cancer cells) is reported as 100 µM.
For `CC(=O)NCCNC(=O)P(=O)(O)O` [Example 10, N-(2-acetamidoethyl)phosphonoformamide], the “concentration at which active” value (cancer cells) was 100 µM.
`O=C(NCCc1c[nH]cn1)P(=O)(O)O` [Example 15, Phosphonoformylhistamine] was tested, and the “% Inhibition of Chemoinvasion 50 uM” value (cancer cells) was 15%.
In the case of `O=C(NC1CCCC1)P(=O)(O)O` [Example 16, N-cyclopentylcarbamoylphosphonic Acid], the “% Inhibition of Capillary Formation 50 UM” value (Endothelial cells) is reported as 70%, the “% Inhibition of Chemoinvasion 50 uM” value (cancer cells; 50 uM) is reported as 65% and the “% Inhibition … for 21 d” value (murine melanoma) is reported as 70%.
`O=C(NCCSCc1ccccc1)P(=O)(O)O` [Example 17, N-(S-benzylmercaptoethyl)carbamoylphosphonic Acid] was tested, and the “% Inhibition of Capillary Formation 50 UM” value (Endothelial cells) was 58% and the “% Inhibition of Chemoinvasion 50 uM” value (cancer cells; 50 uM) was 61%.
With `CNC(=O)[C@@H](NC(=O)[C@H](CC(C)C)NC(=O)P(=O)(O)O)C(C)C` [Example 18, Phosphonoformyl-Leu-Val-NHMe] the “% Inhibition of Capillary Formation 50 UM” value (Endothelial cells) was 42% and the “% Inhibition of Chemoinvasion 50 uM” value (cancer cells; 50 uM) was 38%.
`CNC(=O)[C@H](Cc1ccccc1)NC(=O)[C@H](CC(C)C)NC(=O)P(=O)(O)O` [Example 19, Phosphonoformyl-Leu-Phe-NHMe] was tested, and the “% Inhibition of Capillary Formation 50 UM” value (Endothelial cells) was 60% and the “% Inhibition of Chemoinvasion 50 uM” value (cancer cells) was 55%.
For `CNC(=O)[C@H](Cc1ccc(OC)cc1)NC(=O)[C@H](CC(C)C)NC(=O)P(=O)(O)O` [Example 20, Phosphonoformyl-Leu-Tyr(Me)-NHMe], the “% Inhibition of Capillary Formation 50 UM” value (Endothelial cells) was 38%, the “% Inhibition of Chemoinvasion 50 uM” value (cancer cells; 50 uM) was 39% and the “% Inhibition … for 21 d” value (murine melanoma) was 75%.
`CNC(=O)C(NC(=O)C(Cc1ccccc1)NC(=O)P(=O)(O)O)C(C)C` (stereo not drawn) [Example 21, Phosphonoformyl-Phe-Val-CONHMe] was tested, and the “% Inhibition of Chemoinvasion 50 uM” value (cancer cells; 50 uM) was 41%.
With `CNC(=O)[C@H](Cc1ccc(OC)cc1)NC(=O)[C@@H](CC(=O)NO)CC(C)C` [SC-44463, reference compound] the “% Inhibition … for 21 d” value (murine melanoma) was 70-75%.
